pIC50: −log10 of the molar value. ≈ marks a conversion by molar mass, not a printed value. Like-named read-outs stand apart in the source and are kept apart here.
Columns and labels:
Human PBMC = assay: Cytokines release by hPBMC (PMA+ionomycin activated); assay type: cell-based
Method: FIGS. 18A and 18B show charts of cytokines release by hPBMC and cytotox for Compound 18. For cytokines release and cytotox on hPBMCs compound was tested at 1.25, 2.5, 5, 10, 25 and 50 uM in duplicates. For cytotox on HEK293, HEK293 pGL4 and HEK293 NR2F6 (full length) compound was tested from 50 uM with dilution step 3.16 in duplicates. Human PBMC were activated by 10 ng/mL PMA+500 ng/mL ionomycin. Data were normalized to controls with (100%) w/o compounds.
FIGS. 16A and 16B show results of cytokins release by hPBMC and cytotox for Compound C11. For cytokines release and cytotox on hPBMCs, the Compound was tested at 1.25, 2.5, 5, 10, 25 and 50 uM in duplicates. For cytotox on HEK293, HEK293 pGL4 and HEK293 NR2F6 (full length) cmpd was tested from 50 uM with dilution step 3.16 in duplicates.
The human PBMC were activated by 10 ng/mL PMA+500 ng/mL ionomycin. Data were normalized to controls with (100%) w/o compounds.
For cytokines release and cytotox on hPBMCs each compound was tested at 1.25, 2.5, 5, 10, 25 and 50 uM in duplicates. Human PBMC were activated by 10 ng/mL PMA+500 ng/mL ionomycin. Data were normalized to controls with (100%) w/o cmpds.
FIGS. 61A-61E show further results of cytokine release by hPBMC for Compound D136. Each compound was tested at 1.25, 2.5, 5, 10, 25 and 50 uM in duplicates.
Human PBMC were activated by 10 ng/mL PMA+500 ng/mL ionomycin. Data were normalized to controls with (100%) w/o cmpds.

[1] = Microsomal stability in mouse liver microsomes; assay type: in vitro ADME
PK in mice plasma = assay type: in vivo; conditions: for Fabs, %: PO 3.18 mg/kg vs IV 1.12 mg/kg; for Vd: plasma, iv
pH solubility = assay type: physicochemical; conditions: for solubility: aqueous buffer, OD 250 nm
[2] = Microsomal stability in human liver microsomes; assay type: in vitro ADME
hCyt P450 [3] = target: T1, hCyt P450 (Homo sapiens, UniProt P10632); assay: CYP inhibition; assay type: in vitro ADME; conditions: CYP 2C8-Amodiaquine
T1 sequence (P10632 1-490): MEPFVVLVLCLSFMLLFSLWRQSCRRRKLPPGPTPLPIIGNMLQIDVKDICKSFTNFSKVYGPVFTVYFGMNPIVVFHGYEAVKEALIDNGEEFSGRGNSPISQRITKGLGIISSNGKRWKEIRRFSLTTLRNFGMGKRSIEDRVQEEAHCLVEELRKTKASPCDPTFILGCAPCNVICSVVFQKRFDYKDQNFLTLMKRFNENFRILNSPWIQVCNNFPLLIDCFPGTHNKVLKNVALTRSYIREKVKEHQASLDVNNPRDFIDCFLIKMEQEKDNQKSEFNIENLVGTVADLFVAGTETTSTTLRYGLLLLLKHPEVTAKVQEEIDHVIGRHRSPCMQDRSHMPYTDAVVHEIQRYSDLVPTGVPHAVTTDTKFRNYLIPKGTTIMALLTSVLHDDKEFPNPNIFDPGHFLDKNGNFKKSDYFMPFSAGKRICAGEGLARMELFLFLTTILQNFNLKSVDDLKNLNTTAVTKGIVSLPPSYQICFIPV

hCyt P450 [4] = target: hCyt P450 (Homo sapiens, UniProt P10635); assay: CYP inhibition; assay type: in vitro ADME; conditions: CYP 2D6-Dextromethorphan
hCyt P450 [5] = target: hCyt P450 (Homo sapiens, UniProt P33261); assay: CYP inhibition; assay type: in vitro ADME; conditions: CYP 2C19-Mephenytoin
hCyt P450 [6] = target: T2, hCyt P450 (Homo sapiens, UniProt P05177); assay: CYP inhibition; assay type: in vitro ADME; conditions: CYP 1A2-Phenacetin
T2 sequence (P05177 1-516): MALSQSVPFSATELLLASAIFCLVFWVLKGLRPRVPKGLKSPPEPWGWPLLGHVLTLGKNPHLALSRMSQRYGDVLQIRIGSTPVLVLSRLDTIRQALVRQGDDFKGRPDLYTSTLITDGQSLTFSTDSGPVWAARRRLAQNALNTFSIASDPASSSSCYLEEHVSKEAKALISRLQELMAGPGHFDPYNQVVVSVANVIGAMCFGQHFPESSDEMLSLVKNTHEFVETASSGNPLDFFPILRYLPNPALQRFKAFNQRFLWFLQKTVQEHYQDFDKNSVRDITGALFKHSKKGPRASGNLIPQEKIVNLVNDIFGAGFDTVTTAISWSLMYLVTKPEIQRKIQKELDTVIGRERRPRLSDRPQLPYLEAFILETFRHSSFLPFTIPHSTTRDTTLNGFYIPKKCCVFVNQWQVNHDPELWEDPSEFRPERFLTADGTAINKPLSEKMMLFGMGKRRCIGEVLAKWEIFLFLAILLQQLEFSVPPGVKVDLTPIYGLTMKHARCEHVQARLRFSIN

hCyt P450 [7] = target: hCyt P450 (Homo sapiens, UniProt P11712); assay: CYP inhibition; assay type: in vitro ADME; conditions: CYP 2C9-Tolbutamide
[8] = Table 39, PO plasma, 3.18 mg/kg
[9] = Table 41, IV plasma, 1.12 mg/kg
[10] = mouse, Table 39, PO plasma, 3.18 mg/kg
[11] = mouse, Table 41, IV plasma, 1.12 mg/kg

hCyt P450 (Homo sapiens, UniProt P11712), sequence (P11712 whole entry): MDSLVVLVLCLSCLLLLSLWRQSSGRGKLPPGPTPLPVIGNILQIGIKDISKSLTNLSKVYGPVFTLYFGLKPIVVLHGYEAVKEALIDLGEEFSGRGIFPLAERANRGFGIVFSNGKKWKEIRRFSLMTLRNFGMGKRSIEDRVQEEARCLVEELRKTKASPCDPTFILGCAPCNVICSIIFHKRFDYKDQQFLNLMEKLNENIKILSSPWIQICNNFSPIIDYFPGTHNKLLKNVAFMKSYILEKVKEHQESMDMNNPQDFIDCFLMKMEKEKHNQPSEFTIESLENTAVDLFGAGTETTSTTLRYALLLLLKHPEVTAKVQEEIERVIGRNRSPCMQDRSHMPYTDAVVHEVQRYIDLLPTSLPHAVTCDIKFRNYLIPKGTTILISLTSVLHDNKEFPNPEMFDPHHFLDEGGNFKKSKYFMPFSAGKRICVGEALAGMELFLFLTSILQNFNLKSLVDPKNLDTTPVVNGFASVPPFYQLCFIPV
hCyt P450 (Homo sapiens, UniProt P33261), sequence (P33261 whole entry): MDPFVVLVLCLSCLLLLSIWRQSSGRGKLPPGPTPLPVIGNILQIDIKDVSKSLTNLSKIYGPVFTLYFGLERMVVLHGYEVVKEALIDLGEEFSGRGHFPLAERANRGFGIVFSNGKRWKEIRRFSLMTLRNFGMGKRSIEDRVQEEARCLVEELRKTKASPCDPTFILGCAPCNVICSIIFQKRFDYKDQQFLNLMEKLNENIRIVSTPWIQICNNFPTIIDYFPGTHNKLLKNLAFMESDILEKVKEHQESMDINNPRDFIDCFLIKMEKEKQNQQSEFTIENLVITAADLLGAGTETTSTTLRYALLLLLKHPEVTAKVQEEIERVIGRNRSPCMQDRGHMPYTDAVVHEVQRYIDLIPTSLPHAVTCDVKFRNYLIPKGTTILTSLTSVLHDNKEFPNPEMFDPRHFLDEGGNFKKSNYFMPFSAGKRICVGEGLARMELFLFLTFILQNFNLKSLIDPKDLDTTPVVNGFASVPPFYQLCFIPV
hCyt P450 (Homo sapiens, UniProt P10635), sequence (P10635 whole entry): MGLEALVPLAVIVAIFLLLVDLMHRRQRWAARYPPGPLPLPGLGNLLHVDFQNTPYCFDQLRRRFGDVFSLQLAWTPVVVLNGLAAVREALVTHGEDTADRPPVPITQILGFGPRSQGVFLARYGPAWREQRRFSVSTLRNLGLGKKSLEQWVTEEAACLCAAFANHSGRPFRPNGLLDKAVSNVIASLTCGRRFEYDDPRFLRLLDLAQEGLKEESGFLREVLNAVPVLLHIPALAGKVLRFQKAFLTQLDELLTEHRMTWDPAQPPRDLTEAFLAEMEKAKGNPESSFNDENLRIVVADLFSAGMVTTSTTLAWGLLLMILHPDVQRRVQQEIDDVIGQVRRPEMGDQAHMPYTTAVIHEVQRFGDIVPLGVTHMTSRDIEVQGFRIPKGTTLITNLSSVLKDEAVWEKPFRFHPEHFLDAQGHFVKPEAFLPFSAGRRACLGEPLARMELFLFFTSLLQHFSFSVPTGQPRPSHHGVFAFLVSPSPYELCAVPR

COCCN[C@H]1CS(=O)(=O)C[C@@H]1S(=O)(=O)c1ccc(Cl)cc1 [Compound D136]
IL1b release activation by hPBMC (Human PBMC; at high release activation of others cytokines): No IL1b release activation | IL-1 inhibition (Human PBMC; human PBMC): Selectively inhibits | IL-17α inhibition (Human PBMC; human PBMC): Selectively inhibits | TNF-α inhibition (Human PBMC; human PBMC): Selectively inhibits | stability in presence of mouse liver microsomes [1]: Extremely stable | K el (PK in mice plasma; [8]): 1.2 h⁻¹ | T_½ (PK in mice plasma; [8]): 34.8 min | AUV last (PK in mice plasma; Table 40, IV plasma, 1.12 mg/kg): 124 | AUV last (PK in mice plasma; Table 40, PO plasma, 3.18 mg/kg): 116 | Fabs, % (PK in mice plasma; Table 40, from AUCinf): 33.2% | Fabs, % (PK in mice plasma; Table 40, from AUV last): 33.0% | K el (PK in mice plasma; [9]): 1.16 h⁻¹ | T_½ (PK in mice plasma; [9]): 36 min | Vd (PK in mice plasma; mouse, 1.12 mg/kg, Table 41, IV plasma, 1.12 mg/kg, read-out: Vss): 2.41 L/kg | Vd (PK in mice plasma; mouse, 1.12 mg/kg, Table 41, IV plasma, 1.12 mg/kg, read-out: Vz): 7.74 L/kg | AUC(0-inf) (PK in mice plasma; [10]): 117 ng·h/mL | AUC(0-t) (PK in mice plasma; [10]): 116 ng·h/mL | CL/F (PK in mice plasma; [10]): 452 mL/min/kg | Cmax (PK in mice plasma; [10]): 89.6 ng/mL | MRT inf (PK in mice plasma; [10]): 64.8 min | MRT last (PK in mice plasma; [10]): 62.4 min | Tmax (PK in mice plasma; [10]): 15 min | Vd/F (PK in mice plasma; mouse, Table 39, PO plasma, 3.18 mg/kg, read-out: Vz/F): 22.5 L/kg | AUC(0-inf) (PK in mice plasma; mouse, Table 40, IV plasma, 1.12 mg/kg): 124 ng·h/mL | AUC(0-t) (PK in mice plasma; [11]): 124 ng·h/mL | C0 (PK in mice plasma; [11]): 770 ng/mL | Cmax (PK in mice plasma; [11]): 390 ng/mL | MRT inf (PK in mice plasma; [11]): 16.2 min | MRT last (PK in mice plasma; [11]): 15 min | Tmax (PK in mice plasma; [11]): 4.98 min | clearance (PK in mice plasma; [11]): 150 mL/min/kg | solubility (pH solubility; pH 2): 660 µg/mL (≈ 1790 µM) | solubility (pH solubility; pH 4): 220 µg/mL (≈ 598 µM) | solubility (pH solubility; pH 7): 190 µg/mL (≈ 516 µM) | solubility at pH2 (pH solubility; pH2): soluble | solubility at pH4 (pH solubility; pH4): soluble | solubility at pH7.4 (pH solubility; pH7.4): soluble | stability in presence of human liver microsomes [2]: Extremely stable | CYP inhibition conclusion (hCyt P450 [3]): no inhi- | pIC50 (hCyt P450 [3]): < 5.00 | CYP inhibition conclusion (hCyt P450 [4]): no inhi- | pIC50 (hCyt P450 [4]): < 5.00 | CYP inhibition conclusion (hCyt P450 [5]): no inhi- | pIC50 (hCyt P450 [5]): < 5.00 | CYP inhibition conclusion (hCyt P450 [6]): no inhi- | pIC50 (hCyt P450 [6]): < 5.00 | CYP inhibition conclusion (hCyt P450 [7]): no inhi- | pIC50 (hCyt P450 [7]): < 5.00
